Results taken from patent US5436229A, “Bisulfite adducts of arginine aldehydes” (Eli Lilly and Company, priority 1994, dated 1995).

Key:
Type in all cases: biochemical
human thrombin = human thrombin (Homo sapiens, UniProt P00734); assay: Thrombin amidase inhibition (Kass), chromogenic substrate
Method: The assay is carried out by mixing 50 μl buffer (0.03M Tris, 0.15M NaCl, pH 7.4) with 25 μl of human thrombin solution (purified human thrombin, Enzyme Research Laboratories, South Bend, Ind., at 8 NIH units/ml) and 25 μl of test compound in a solvent (50% aqueous methanol (v:v)). Then 150 μl of an aqueous solution of the chromogenic substate (at 0.25 mg/ml) are added and the rates of hydrolysis of the substrate are measured by monitoring the reactions at 405 nm for the release of p-nitroaniline. Standard curves are constructed by plotting free thrombin concentration against hydrolysis rate. […] The amount of free inhibitor in each assay is calculated by subtracting the number of moles of bound thrombin from the number of moles of added inhibitor (test compound).
The Kass value is the hypothetical equilibrium constant for the reaction between thrombin and the test compound (I) . [formula]
Kass is calculated for a range of concentrations of test compounds and the mean value reported in units of liter per mole.

human plasma [1] = assay: Human plasma anticoagulation, activated partial thromboplastin time (APTT)
Method: (§1) Fibrinogen is prepared from in-date ACD human blood as the fraction I-2 according to previous procedures and specifications. Smith, Biochem. […] Coagulation reagents ACTIN, Thromboplastin, and Human plasma are from Baxter Healthcare Corp., Dade Division, Miami, Fla. Bovine thrombin from Parke-Davis (Detroit, Mich.) is used for coagulation assays in plasma. Coagulation assay procedures are as previously described. […] A CoAScreener coagulation instrument (American LABor, Inc.) is used for all coagulation assay measurements. […] The compounds of formula I are added to human or animal plasma over a wide range of concentrations to determine prolongation effects on the APTT, PT, and TT assays. Linear extrapolations are performed to estimate the concentrations required to double the clotting time for each assay.

[2] = biological target: T1, tissue plasminogen activator (t-PA) (Homo sapiens, UniProt P00750); assay: Serine protease inhibition (Kass), t-PA
T1 construct: purchased American Diagnostica, Greenwich, Conn
Method: (§2) By substantially following the procedures described above for human thrombin, and using other human blood coagulation system serine proteases and using fibrinolytic system serine proteases, with the appropriate chromogenic substrates, identified below, the selectivity of the compounds of the present invention with respect to the coagulation factor serine proteases and to the fibronolytic serine proteases are evaluated as well as their substantial lack of interference with human plasma clot fibrinolysis.
(§3) Human plasmin is purchased from Boehringer Mannheim, Indianapolis, Ind.; nt-PA is purchased as single chain activity reference from American Diagnostica, Greenwich, Conn.; modified-t-PA6 (mt-PA6) is prepared at Eli Lilly and Company by procedure known in the art (See, Burck, et al., J. Biol. Chem., 265, […] (1990). Plasmin chromogenic substrate H-D-Val-Leu-Lys-p-nitroanilide and tissue plasminogen activator (t-PA) substrate H-D-Ile-Pro-Arg-p-nitroanilide are purchased from Kabi Vitrum, Stockholm, Sweden.

Bovine trypsin = biological target: T2, Bovine trypsin (Bos taurus, UniProt P00760); assay: Serine protease inhibition (Kass), trypsin
T2 construct: Bovine trypsin is purchased from Worthington Biochemicals; purchased Worthington Biochemicals, Freehold, N.J
T2 sequence (P00760 24-246): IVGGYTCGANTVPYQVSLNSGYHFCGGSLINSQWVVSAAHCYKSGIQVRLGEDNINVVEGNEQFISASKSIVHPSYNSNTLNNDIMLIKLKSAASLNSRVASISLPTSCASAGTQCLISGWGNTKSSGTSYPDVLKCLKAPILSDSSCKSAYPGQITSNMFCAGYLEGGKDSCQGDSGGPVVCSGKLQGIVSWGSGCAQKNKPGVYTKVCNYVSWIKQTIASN
Method: as §2
(§4) Human factors X, Xa, IXa, XIa, and XIIa are purchased from Enzyme Research Laboratories, South Bend, Ind.; human urokinase from Leo Pharmaceuticals, Denmark; and recombinant activated Protein C (aPC) is prepared at Eli Lilly and Co. substantially according to U.S. Pat. No. 4,981,952 incorporated by reference herein in its entirety. Chromogenic substrates: N-Benzoyl-Ile-Glu-Gly-Arg-p-nitroanilide (for factor Xa); N-Cbz-D-Arg-Gly-Arg-p-nitroanilide (for factor IXa assay as the factor Xa substrate); Pyroglutamyl-Pro-Arg-p-nitroanilide (for Factor XIa and for aPC); H-D-Pro-Phe-Arg-p-nitroanilide (for factor XIIa); and Pyroglutamyl-Gly-Arg-p-nitroanilide (for urokinase); are purchased from KabiVitrum, Stockholm, Sweden, or from Midwest Biotech, Fishers, Ind. Bovine trypsin is purchased from Worthington Biochemicals, Freehold, N.J., and human plasma kallikrein from Kabi Vitrum, Stockholm, Sweden. Chromogenic substrate H-D-Pro-Phe-Arg-p-nitroanilide for plasma kallikrein is purchased from Kabi Vitrum, Stockholm, Sweden. N-Benzoyl-Phe-Val-Arg-p-nitroanilide, the substrate for human thrombin and for trypsin, is synthesized according to procedures described above for the compounds of the present invention, using known methods of peptide coupling from commercially available reactants, or purchaed from Midwest Biotech, Fishers, Ind.

human plasma [3] = assay: Human plasma anticoagulation, thrombin time (TT)
Method: as §1

human plasma [4] = assay: Human plasma anticoagulation, prothrombin time (PT)
Method: as §1

factor Xa = biological target: T3, factor Xa (Homo sapiens, UniProt P00742); assay: Serine protease inhibition (Kass), factor Xa
T3 construct: Human factors X, Xa, IXa, XIa, and XIIa are purchased from Enzyme Research Laboratories; purchased Enzyme Research Laboratories, South Bend, Ind
Method: as §2, §4

Human plasmin = biological target: T4, Human plasmin (Homo sapiens, UniProt P00747); assay: Serine protease inhibition (Kass), plasmin
T4 construct: Human plasmin is purchased from Boehringer Mannheim; purchased Boehringer Mannheim, Indianapolis, Ind
Method: as §2, §3

T3 sequence (P00742 235-488 limits assumed): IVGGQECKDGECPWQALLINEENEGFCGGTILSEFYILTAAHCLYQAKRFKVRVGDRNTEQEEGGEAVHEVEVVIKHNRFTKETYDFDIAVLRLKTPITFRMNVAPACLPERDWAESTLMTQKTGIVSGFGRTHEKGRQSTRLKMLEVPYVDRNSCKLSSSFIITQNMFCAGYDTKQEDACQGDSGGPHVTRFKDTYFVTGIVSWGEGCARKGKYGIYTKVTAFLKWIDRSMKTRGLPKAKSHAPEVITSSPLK
T3 sequence (P00742 41-179 partner limits assumed): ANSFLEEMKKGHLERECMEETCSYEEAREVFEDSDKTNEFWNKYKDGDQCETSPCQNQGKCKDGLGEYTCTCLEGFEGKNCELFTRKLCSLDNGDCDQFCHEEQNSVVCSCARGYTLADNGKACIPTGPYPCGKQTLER
T4 sequence (P00747 581-810 limits assumed): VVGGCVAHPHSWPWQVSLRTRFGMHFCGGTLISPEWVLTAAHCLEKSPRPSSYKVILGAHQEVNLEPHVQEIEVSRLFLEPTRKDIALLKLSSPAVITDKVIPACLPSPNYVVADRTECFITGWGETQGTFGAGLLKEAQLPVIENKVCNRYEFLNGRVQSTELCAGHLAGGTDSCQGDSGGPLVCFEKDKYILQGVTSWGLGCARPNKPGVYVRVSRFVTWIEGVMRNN
T4 sequence (P00747 97-580 partner limits assumed): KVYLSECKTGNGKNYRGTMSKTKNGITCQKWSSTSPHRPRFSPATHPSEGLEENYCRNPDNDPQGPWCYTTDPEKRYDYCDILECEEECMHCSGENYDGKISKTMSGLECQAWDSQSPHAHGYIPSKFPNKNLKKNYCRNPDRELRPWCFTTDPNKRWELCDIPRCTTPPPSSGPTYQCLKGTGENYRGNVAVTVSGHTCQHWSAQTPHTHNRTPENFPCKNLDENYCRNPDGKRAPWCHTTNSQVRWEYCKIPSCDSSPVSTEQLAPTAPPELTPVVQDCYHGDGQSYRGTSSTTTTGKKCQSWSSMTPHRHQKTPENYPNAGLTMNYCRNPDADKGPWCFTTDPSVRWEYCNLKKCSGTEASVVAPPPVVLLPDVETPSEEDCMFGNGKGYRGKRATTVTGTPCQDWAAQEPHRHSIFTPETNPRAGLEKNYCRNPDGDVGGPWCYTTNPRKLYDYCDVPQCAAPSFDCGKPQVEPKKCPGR
T1 sequence (P00750 36-562): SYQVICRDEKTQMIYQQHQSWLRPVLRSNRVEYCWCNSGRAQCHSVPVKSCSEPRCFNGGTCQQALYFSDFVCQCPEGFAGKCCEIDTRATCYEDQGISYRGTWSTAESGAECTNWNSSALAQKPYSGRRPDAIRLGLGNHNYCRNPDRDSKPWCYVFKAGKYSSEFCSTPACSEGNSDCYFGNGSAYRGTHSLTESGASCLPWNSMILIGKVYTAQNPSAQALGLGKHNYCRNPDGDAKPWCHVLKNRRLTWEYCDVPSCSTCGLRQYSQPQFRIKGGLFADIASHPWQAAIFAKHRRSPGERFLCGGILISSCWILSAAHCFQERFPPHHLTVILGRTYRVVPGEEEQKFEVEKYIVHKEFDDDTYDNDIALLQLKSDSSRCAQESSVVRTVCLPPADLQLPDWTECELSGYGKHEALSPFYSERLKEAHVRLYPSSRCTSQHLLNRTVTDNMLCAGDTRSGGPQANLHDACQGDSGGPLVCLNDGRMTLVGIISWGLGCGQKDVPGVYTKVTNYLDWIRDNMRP

Row | SMILES | Kass Human Thrombin (human thrombin) [L/mol × 10^6] | 2 × Clotting time APTT (human plasma [1]) | Kass t-PA [2] [L/mol × 10^6] | Kass Trypsin (Bovine trypsin) [L/mol × 10^6] | 2 × Clotting time TT (human plasma [3]) | 2 × Clotting time PT (human plasma [4]) | Kass Xa (factor Xa) [L/mol × 10^6] | Kass Plasmin (Human plasmin) [L/mol × 10^6]
1 | Cl.Cl.Cn1c(C(=O)N[C@](C)(Cc2ccccc2)C(=O)N2CCC[C@H]2C(=O)N[C@H](C=O)CCCNC(=N)N)cc2ccccc21 [Example 30, N-(1-methylindolyl-2-carbonyl)-D-phenylalanyl(α-methyl)-L-prolinyl-L -arginine aldehyde dihydrochloride] | 25 | 2,800 ng/mL | 0.0022 | 1.3 | 220 ng/mL | 4,200 ng/mL | 0.013 | 0.0083
2 | CCS(=O)(=O)NC1(C(=O)N2CCC[C@H]2C(=O)N[C@H](C=O)CCCNC(=N)N)CCCCC1.Cl [Example 31, 1-(ethylsulfonylamino)cyclohexoyl-L-prolinyl-L-arginine aldehyde hydrochloride] | 3.2 | 12,000 ng/mL | 0.00034 | 0.42 | 300 ng/mL | 11,000 ng/mL | 0.036 | 0.010
3 | Cl.Cn1c(C(=O)NC2(C(=O)N3CCC[C@H]3C(=O)N[C@H](C=O)CCCNC(=N)N)CCCCC2)cc2ccccc21 [Example 32, 1-(1-methylindolyl-2-carbonylamino)cyclohexoyl-L-prolinyl-L-arginine aldehyde hydrochloride] | 5.7 | 11,000 ng/mL | 0.0011 | 0.45 | 1,000 ng/mL | 9,200 ng/mL | 0.024 | 0.0071
4 | CCS(=O)(=O)N[C@@H](Cc1ccccc1)C(=O)N1CCC[C@@]1(C)C(=O)N[C@H](C=O)CCCNC(=N)N.Cl [Example 33, N-ethylsulfonylphenylalanyl(αmethyl)-L-prolinyl-L-arginine aldehyde hydrochloride] | 0.6 | 5,400 ng/mL | 0.007 | 1.7 | 300 ng/mL | 7,300 ng/mL | 0.027 | 0.056
5 | Cl.Cn1c(C(=O)NC(C)(Cc2ccccc2)C(=O)N2CCC[C@H]2C(=O)N[C@H](C=O)CCCNC(=N)N)cc2ccccc21 (stereo partly drawn) [Example 34, N-(1-methylindolyl-2carbonyl)phenylalanyl(αmethyl)-L-prolinyl-L-argi nine aldehyde hydrochloride] | 2.8 | 21,000 ng/mL | 0.009 | 0.18 | 1,800 ng/mL | 37,000 ng/mL | 0.002 | 0.001
6 | CCOC(=O)N[C@](CC)(Cc1ccccc1)C(=O)N1CCC[C@H]1C(=O)N[C@H](C=O)CCCNC(=N)N.Cl [Example 35, N-ethoxycarbonyl-D-phenylalanyl(αethyl)-L-prolinyl-L-arginine aldehyde hydrochloride] | 57 | 3,200 ng/mL | 0.002 | 4.9 | 93 ng/mL | 3,300 ng/mL | 0.036 | 0.12
